{"source": "paper PMC12928571", "about": "“Idler Compounds: A Simple Protocol for Openly Sharing Fridge Contents for Cross-Screening” (Journal of Medicinal Chemistry, 2026)", "key": {"[1]": {"test": "Solubility by forward light-scatter (NEPHELOstar Plus)", "type": "physicochemical", "settings": "1% DMSO in DPBS pH 7.1, 37 °C; for solubility (in words): 2 h"}, "[2]": {"system": "SARS-CoV-2 nonstructural protein 12 (Nsp12)", "settings": "from originating SARS-CoV-2 Nsp12 project; cited from earlier work"}, "[3]": {"system": "C. albicans (NCPF 3281)", "test": "Activity against C. albicans, microbroth growth inhibition (OD530)", "type": "cell-based, Candida albicans", "settings": "100 μM; active when inhibition >80%"}, "[4]": {"system": "E. coli (NCTC 12923) +PMBN", "test": "Activity against E. coli in the presence of PMBN (30 μg/mL)", "type": "cell-based, Escherichia coli", "settings": "100 μM, active when inhibition >80%"}, "[5]": {"system": "DENV serotype 2", "settings": "from originating DENV RdRp project; reference not printed at the place; cited from earlier work"}, "[6]": {"system": "Mycobacterium avium (ATCC15796)", "test": "Activity against Mycobacterium avium, luciferase reporter strain luminescence", "settings": "10 μM; active when inhibition >50%"}, "[7]": {"system": "P. falciparum", "settings": "from originating P. falciparum / Open Source Malaria projects; cited from earlier work"}, "[8]": {"system": "S. aureus (ATCC 9144)", "test": "Activity against S. aureus, microbroth growth inhibition (OD600)", "type": "cell-based, Staphylococcus aureus", "settings": "100 μM; active when inhibition >80%"}, "[9]": {"system": "A. baumannii (ATCC 17978) +PMBN", "test": "Activity against A. baumannii in the presence of PMBN (30 μg/mL)", "type": "cell-based, Acinetobacter baumannii", "settings": "100 μM, active when inhibition >80%"}, "[10]": {"system": "Mycobacterium abscessus (NCTC 14045)", "test": "Activity against Mycobacterium abscessus, luciferase reporter strain luminescence", "settings": "10 μM; active when inhibition >50%"}, "[11]": {"system": "chikungunya virus nsp2 helicase", "settings": "from originating chikungunya virus nsp2 helicase project; cited from earlier work"}, "[12]": {"system": "Huh7 cells", "settings": "reported after plate MHT-0001 was prepared, reference not printed at the place; cited from earlier work"}, "[13]": {"system": "Gram-negative strain", "test": "Activity on a Gram-negative strain without PMBN (strain not given)", "type": "cell-based", "settings": "100 μM, strain not named"}}, "data": [{"smiles": "CC1=CC(=O)C=C(C)C1=NOS(=O)(=O)c1ccc(Cl)cc1", "note": "[RA-0001351]", "values": [{"measurement": "solubility (in words)", "setting": "[1]", "result": "good solubility"}, {"measurement": "potency on Nsp12 (in words)", "setting": "[2]", "result": "potent"}]}, {"smiles": "COc1cc2nc(Nc3cc(C)[nH]n3)nc(Nc3cc(C)[nH]n3)c2cc1OC", "note": "[MA20]", "values": [{"measurement": "activity on C. albicans (in words)", "setting": "[3]", "result": "selective activity"}]}, {"smiles": "O=S(=O)(Nc1ccc(Oc2ccccc2)cc1)c1cccc(C(F)(F)F)c1", "note": "[EC055-1]", "values": [{"measurement": "activity on E. coli +PMBN (in words)", "setting": "[4]", "result": "narrow–spectrum activity"}]}, {"smiles": "Cc1ccc(C)c(N2CCN(C(=O)C3CCN(c4ncnc5c4sc4ncccc45)CC3)CC2)c1", "note": "[RA-0020572]", "values": [{"measurement": "antiviral activity on DENV serotype 2", "setting": "[5]", "result": 2.7, "unit": "µM"}]}, {"smiles": "Nc1ncnc2cc(-c3cccc(S(N)(=O)=O)c3)sc12", "note": "[YNW5-2]", "values": [{"measurement": "activity on E. coli +PMBN (in words)", "setting": "[4]", "result": "narrow–spectrum activity"}, {"measurement": "activity on M. avium (in words)", "setting": "[6]", "result": "showed activity"}, {"measurement": "antiplasmodial activity / inhibition against P. falciparum (in words)", "setting": "[7]", "result": "potent and selective inhibition"}]}, {"smiles": "COc1ccc2c(c1)nc(-c1c[nH]c3cc(N4CCOCC4)ccc13)c1[nH]ccc12", "note": "[WEL2.76]", "values": [{"measurement": "activity on S. aureus (in words)", "setting": "[8]", "result": "strong activity"}, {"measurement": "solubility (in words)", "setting": "[1]", "result": "poor"}, {"measurement": "activity on E. coli +PMBN (in words)", "setting": "[4]", "result": "strong activity"}, {"measurement": "activity on M. avium (in words)", "setting": "[6]", "result": "no noticeable effect"}, {"measurement": "activity on A. baumannii +PMBN (in words)", "setting": "[9]", "result": "strong activity"}, {"measurement": "activity on C. albicans (in words)", "setting": "[3]", "result": "no noticeable effect"}, {"measurement": "activity on M. abscessus (in words)", "setting": "[10]", "result": "no noticeable effect"}, {"measurement": "antiplasmodial activity / inhibition against P. falciparum (in words)", "setting": "[7]", "result": "promising antiplasmodial activity"}]}, {"smiles": "Oc1ccc(CN2CCN(c3ccccc3F)CC2)c2cccnc12", "note": "[RA-0020681]", "values": [{"measurement": "solubility (in words)", "setting": "[1]", "result": "poor"}, {"measurement": "unwinding or ATPase inhibitory effect (in words)", "setting": "[11]", "result": "no unwinding or ATPase inhibitory effect"}, {"measurement": "activity on C. albicans (in words)", "setting": "[3]", "result": "selective activity"}]}, {"smiles": "O=C(Nc1ccccc1)C(Cl)C(=O)c1ccccc1", "note": "(centres unmarked) [RA-0020661-01]", "values": [{"measurement": "activity on A. baumannii +PMBN (in words)", "setting": "[9]", "result": "narrow–spectrum activity"}]}, {"smiles": "CC1(C)C2CCC1(C)C(OCC(O)CNC1CCCCC1)C2", "note": "(centres unmarked) [RA-0020564]", "values": [{"measurement": "solubility at 2 h", "setting": "[1]; DPBS with 1% DMSO, aqueous buffer, kinetic from dmso stock", "result": "> 100", "unit": "µM"}, {"measurement": "activity on E. coli +PMBN (in words)", "setting": "[4]; listed as well G6", "result": "narrow–spectrum activity"}, {"measurement": "CC50", "setting": "[12]", "result": 14.5, "unit": "µM"}]}, {"smiles": "COc1ccc(-c2ccc(CNc3ccnc(S(=O)(=O)F)c3)s2)cc1", "note": "[RA-0020649-01]", "values": [{"measurement": "activity on C. albicans (in words)", "setting": "[3]", "result": "selective activity"}]}, {"smiles": "CC(C)c1cc(Nc2nc(N[C@@H](CO)C3CCCCC3)nc3[nH]ncc23)n[nH]1", "note": "[WYH-9]", "values": [{"measurement": "activity on E. coli +PMBN (in words)", "setting": "[4]", "result": "narrow–spectrum activity"}]}, {"smiles": "COc1ccc2c(c1)nc(-c1c[nH]c3ccc(N4CCSCC4)cc13)c1[nH]ccc12", "note": "[WEL2.92a]", "values": [{"measurement": "activity on a Gram-negative strain (in words)", "setting": "[13]", "result": "showed activity"}]}]}
